Data published in PubChem BioAssay AID1053120 (Broad Institute, 2014).
Calls of active or inactive are those of the source. How the calls were made is not given here.

Assays:
[1] = nonspecific luciferase activators in D54 LucT cells, dose response, counter-screen for N-linked glycosylation inhibitor project, cell-based, dry powder, set 2 (AID 1053120); conditions: D54 LucT luciferase reporter (no NLG), luminescence, 24 h; at 19.5 µM (top of the series)
[2] = test system: D54 LucT luciferase reporter (no NLG), luminescence, 24 h; experiment: as above

SMILES | luciferase activation [1] | AC40 [2] [nM]
Cc1cnc(NC(=O)c2cc(S(=O)(=O)N3CCCCC3)ccc2N2CCCC2)s1 | 50% (inactive) | –
Cc1[nH][nH]c(=O)c1C(c1ccc(-c2ccc(Cl)c(Cl)c2)o1)c1c(C)[nH][nH]c1=O | 0% (inactive) | –
CN(C)S(=O)(=O)c1ccc(N2CCCC2)c(C(=O)Nc2nccs2)c1 | 20% (inactive) | –
CCCOC(=O)c1[nH]c2c(c1C)C(=O)CC(c1cccs1)C2 (configuration not stated) | 50% (inactive) | –
COc1cccc2sc(NC(=O)c3cc(S(=O)(=O)N(C)C)ccc3N3CCCC3)nc12 | -50% (inactive) | –
Cc1cnc(NC(=O)c2cc(S(=O)(=O)N(C)C)ccc2N2CCC2)s1 | -20% (inactive) | –
O=C1CCNc2cc3ccccc3cc21 | -66.7% (inactive) | –
CC(=O)c1ccc(Oc2cc(C)nc(-n3nc(C)cc3C)n2)cc1 | 0% (inactive) | –
Cc1cc(NC(=O)CSc2nc(-c3ccco3)cc(C(F)(F)F)n2)no1 | 0% (inactive) | –
CN(C)CCCN(Cc1cc2ccccc2[nH]c1=O)C(=O)Nc1ccccc1 | 20% (inactive) | –
CCC1=Nc2cc(C(=O)NCCCOC)ccc2Sc2ccccc21 | -33.3% (inactive) | –
COc1cc(C(=O)NCCOc2cc(C)cc(C)c2)cc(OC)c1OC | 33.3% (inactive) | –
COc1ccc(-c2nnc(SCc3ccccc3)o2)cc1 | – | 5120
COc1cccc(N2CCN(C(=O)c3ccc(CS(=O)c4ccc(C)cc4)o3)CC2)c1 (configuration not stated) | 0% (inactive) | –
Cc1ccc(Oc2ccc(S(=O)(=O)N3CCOCC3)cc2C(N)=O)c(-n2nc3ccccc3n2)c1 | 33.3% (inactive) | –
Cc1csc(NC(=O)c2cc(S(=O)(=O)N(C)C)ccc2N2CCCC2)n1 | 50% (inactive) | –
C/C(=N\NC(=O)c1c([N+](=O)[O-])c(C)nn1C)c1ccc(NC(=O)C2CCCC2)cc1 | 0% (inactive) | –
O=C(Cc1ccccc1)c1nnc(-c2ccccc2)o1 | 33.3% (inactive) | –
CCN(CC)CCOc1ccc2c(c1)C(=NNC(=O)c1ccccn1)c1cc(OCCN(CC)CC)ccc1-2 | -33.3% (inactive) | –
CN(C)S(=O)(=O)c1ccc(N2CCCC2)c(C(=O)Nc2ccccc2)c1 | 20% (inactive) | –
CN(C)S(=O)(=O)c1ccc(N2CCCC2)c(C(=O)Nc2nc3ccccc3s2)c1 | 0% (inactive) | –

SMILES | luciferase activation [1] | AC40 [2] [nM]
Cc1ccc2cc(CN(CCCN(C)C)C(=O)Nc3ccccc3)c(=O)[nH]c2c1C | 0% (inactive) | –
Cc1ccc(CCC(=O)Nc2ncc(Cc3cc(Cl)ccc3Cl)s2)o1 | -33.3% (inactive) | –
COc1ccc(CSc2nnc(-c3ccccc3)o2)cc1 | 50% (inactive) | –
CC(=O)N1CCC(=O)c2cc3ccccc3cc21 | 33.3% (inactive) | –
Cc1cnc(NC(=O)c2cc(S(=O)(=O)N3CCOCC3)ccc2N2CCCC2)s1 | -20% (inactive) | –
COc1ccc2c(COC(=O)c3cccc(S(=O)(=O)NCC(C)C)c3)cc(=O)oc2c1 | 66.7% (inactive) | –
COc1ccc2nc(NC(=O)c3cc(S(=O)(=O)N(C)C)ccc3N3CCCC3)sc2c1 | 0% (inactive) | –
CC(=O)N[C@H]1[C@@H](O[C@@H]2OC(C[C@@H](O)C3O[C@@H](n4ccc(=O)[nH]c4=O)[C@H](O)[C@@H]3O)[C@H](O)[C@H](O)[C@H]2NC(=O)/C=C/CCCCCCCCCCC(C)C)O[C@H](CO)[C@@H](O)[C@@H]1O (some centres not stated) | -50% (inactive) | –
Cc1ccc(C(=O)c2cc([N+](=O)[O-])ccc2N2CCOCC2)cc1C | 66.7% (inactive) | –
COc1cc(Nc2c3c(nc4ccccc24)CCCC3)cc(OC)c1OC | 0% (inactive) | –
Cc1ccc(NC(=O)c2cc(S(=O)(=O)N(C)C)ccc2N2CCCC2)cc1 | 0% (inactive) | –
CCN(CC)CCC(=O)Nc1cccc2c1C(=O)c1ccccc1C2=O | -33.3% (inactive) | –
Cc1cnc(NC(=O)c2cc(S(=O)(=O)N(C)C)ccc2N2CCCC2)s1 | 0% (inactive) | –
COc1cc(-c2nnc(SCC3(c4ccc(Br)cc4)OCCO3)o2)cc(OC)c1OC | – | 930
CCOc1ccc(S(=O)(=O)NCc2ccccn2)cc1NC(=O)c1ccccc1F | 0% (inactive) | –
CCCCOc1ccccc1C1CC(=O)NC2=C1C(=O)CCC2 (configuration not stated) | 0% (inactive) | –
CCCNS(=O)(=O)c1cccc(C(=O)OCc2cc(=O)oc3cc(OC)ccc23)c1 | – | 2140
CCOC(=O)c1ccc(Oc2cc(C)nc(SC)n2)cc1 | – | 3390
Nc1nc(=S)c2ncn([C@@H]3O[C@H](CO)[C@@H](O)[C@H]3O)c2[nH]1 | – | 5190
Brc1ccc(CSc2nnc(-c3ccccc3)o2)cc1 | 0% (inactive) | –
Cc1cnc(NC(=O)c2cc(S(=O)(=O)N3CCCC3)ccc2N2CCCC2)s1 | -20% (inactive) | –

SMILES | luciferase activation [1] | AC40 [2] [nM]
Cc1ccc2cc(CN(CCCN(C)C)C(=O)NCc3ccccc3)c(=O)[nH]c2c1C | 50% (inactive) | –
CCn1c2ccccc2c2cc(NC(=O)c3cc(OC)c(OC)c(OC)c3)ccc21 | -33.3% (inactive) | –
COc1ccccc1OCC(=O)NNC(=O)c1ccoc1C | 33.3% (inactive) | –
COC(=O)c1cn(C(=O)c2ccc(OC)cc2)c2ccccc12 | – | 15400
CN(C)CCCN(Cc1cc2ccccc2[nH]c1=O)C(=O)NCc1ccccc1 | 0% (inactive) | –
Cc1cc(C)cc(C(=O)N2CC(=O)Nc3ccccc32)c1 | 33.3% (inactive) | –
CCOc1ccc(NC(=O)c2cc(OC)nc3ccccc23)cc1 | 0% (inactive) | –
Cc1cc(=O)[nH]c(N/N=C/c2cc(C)n(CC(F)(F)F)c2C)n1 | 0% (inactive) | –
O=C1CCN(Cc2ccccc2)c2cc3ccccc3cc21 | 0% (inactive) | –
CC(=O)c1cccc(NC(=O)CSc2ncc(C(=O)Nc3ccccc3)c(=O)n2C)c1 | 33.3% (inactive) | –
COc1ccccc1-c1nnc(SCc2ccccc2)o1 | – | 632
CCOC(=O)COc1cccc2c(=O)n(CC(=O)NCc3ccccc3)ccc12 | 0% (inactive) | –
Cc1cc(C)nc(/N=C(\N)Nc2ccc(OCc3ccccc3)cc2)n1 | -33.3% (inactive) | –
O=C(N/N=C/c1ccc(Cl)cc1)c1sccc1OCc1ccc(F)cc1 | – | 1600
COc1ccc2sc(NC(=O)c3cc(S(=O)(=O)N(C)C)ccc3N3CCCC3)nc2c1 | -50% (inactive) | –
Cc1ccc(/C=N/NC(=O)C2COc3ccccc3O2)s1 (configuration not stated) | – | 15300
Cc1cccc(C)c1OCCNC(=O)C(=O)NCc1ccco1 | 33.3% (inactive) | –
COc1ccccc1CSc1nnc(-c2ccccc2)o1 | – | 845
CCN(CC)CCCNc1nc2cc(OC)c(OC)cc2c2nc(-c3ccccc3)nn12 | -33.3% (inactive) | –
COc1ccc(NC(=O)C(=O)c2cn(CC(=O)N3CCCC3)c3ccccc23)cc1 | -33.3% (inactive) | –
